Source: patent US20230203060A1 (GENFLEET THERAPEUTICS (SHANGHAI) INC., priority 2020, published 2023)
Like-named read-outs stand apart in the source and are kept apart here.

Key:
[1] = test system: phosphorylated ERK downstream of KRAS G12C in MIA PaCa2 cells; test: Cell p-ERK detection experiment (HTRF) in MIA PaCa2; format: cell-based, human; conditions: MIA PaCa2 cells, 2 hours with compound, Advance ERK phospho-T202/Y204 HTRF kit, read-out: p-ERK IC50
Outline: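 Phospho-ERK (T202/Y204) measured by HTRF after 30 min lysis and 4 h antibody incubation in MIA PaCa2 (KRAS G12C) cells, seeded at 2.5E4 per well and treated 2 h with compounds in 3.16-fold steps, final DMSO 0.1%. IC50 from a four-parameter fit of percent inhibition relative to DMSO and blank wells.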

[2] = test system: KRAS G12C mutant MIA PaCa-2 cells; test: Cell proliferation inhibition experiment, 3D spheroid, CellTiter-Glo, MIA PaCa-2; format: cell-based, human; conditions: 3D cell model in 384-well spheroid plate, 5 days, CellTiter-Glo, read-out: MIA-PaCa2 IC50
Outline: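 Luminescent ATP read-out (CellTiter-Glo) after 5-day compound treatment of spheroids formed overnight from 200 MIA PaCa-2 cells/well; compounds in 3.16-fold series, 0.1% DMSO final. IC50 derived by four-parameter fit of percent inhibition, normalized to DMSO control and medium blank.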

[3] = Homo sapiens, MIA PaCa-2, 120 h

## C=CC(=O)N1CCN2C(=O)c3c(N4C[C@@H](O)C[C@@H]4C)nc(-c4c(O)cccc4F)c(Cl)c3OC[C@H]2C1 [Z260, (6aR)-8-acryloyl-4-chloro-3-(2-fluoro-6-hydroxyphenyl)-1-((2S,4S)-4-hydroxy-2-methylpyrrolidin-1-yl)-6,6a,7,8,9,10-hexahydro-12H-pyrazino[2,1-c]pyrido[3,4-f][1,4]oxazepin-12-one]
[1]; Homo sapiens, MIA PaCa-2, 2 h
  IC50: 91 nM
[2]; [3]
  IC50: 4.4 nM

## C=CC(=O)N1CCN2C(=O)c3c(N4CC(N(C)CC(F)F)CC4(C)C)nc(-c4ccccc4F)c(Cl)c3OC[C@H]2C1 (stereo partly drawn) [Z659]
[1]
  IC50: 26 nM
[2]
  IC50: 9.3 nM

## C=CC(=O)N1CCN2C(=O)c3c(N4CC(=O)N(C)CC4C)nc(-c4c(O)cccc4F)c(Cl)c3OC[C@H]2C1 (stereo partly drawn) [Z221, (6aR)-8-acryloyl-4-chloro-1-(2,4-dimethyl-5-oxopiperazin-1-yl)-3-(2-fluoro-6-hydroxyphenyl)-6,6a,7,8,9,10-hexahydro-12H-pyrazino[2,1-c]pyrido[3,4-f][1,4]oxazepin-12-one]
[1]; Homo sapiens, MIA PaCa-2, 2 h
  IC50: 23 nM
[2]; [3]
  IC50: 4.5 nM

## C=CC(=O)N1CCN2C(=O)c3c(N4CC[C@@H]4C)nc(-c4c(O)cccc4F)c(Cl)c3OC[C@H]2C1 [Z68, (6aR)-8-acryloyl-1-((S)-2-methylazetidin-1-yl)-4-chloro-3-(2-fluoro-6-hydroxyphenyl)-6,6a,7,8,9,10-hexahydro-12H-pyrazino[2,1-c]pyrido[3,4-f][1,4]oxazepin-12-one]
[1]; Homo sapiens, MIA PaCa-2, 2 h
  IC50: 88 nM
[2]; [3]
  IC50: 18 nM

## C=CC(=O)N1CCN2C(=O)c3c(NC(C)(C)C)nc(-c4c(O)cccc4F)c(Cl)c3OC[C@H]2C1 [Z69, (6aR)-8-acryloyl-1-(tert-butylamino)-4-chloro-3-(2-fluoro-6-hydroxyphenyl)-6,6a,7,8,9,10-hexahydro-12H-pyrazino[2,1-c]pyrido[3,4-f][1,4]oxazepin-12-one]
[1]; Homo sapiens, MIA PaCa-2, 2 h
  IC50: 79 nM
[2]; [3]
  IC50: 28 nM

## C=CC(=O)N1CCN2C(=O)c3c(N4CC(N(C)C5COC5)CC4(C)C)nc(-c4c(O)cccc4F)c(Cl)c3OC[C@H]2C1 (single isomer, unassigned) [Z331-1]
[1]; Homo sapiens, MIA PaCa-2, 2 h
  IC50: 6 nM
[2]; [3]
  IC50: 1.1 nM

## C=CC(=O)N1CCN2C(=O)c3c(N4C[C@H](NC)CC4(C)C)nc(-c4ccccc4F)c(Cl)c3OC[C@H]2C1 (single isomer, unassigned) [Z661-2]
[1]; Homo sapiens, MIA PaCa-2, 2 h
  IC50: 538 nM
[2]; [3]
  IC50: 4 nM

## C=CC(=O)N1CCN2C(=O)c3c(Nc4c(C)ccnc4C(C)C)nc(-c4c(O)cccc4F)c(Cl)c3OC[C@H]2C1 [Z5, (6aR)-8-acryloyl-4-chloro-3-(2-fluoro-6-hydroxyphenyl)-1-((2-isopropyl-4-methylpyridin-3-yl)amino)-6,6a,7,8,9,10-hexahydro-12H-pyrazino[2,1-c]pyrido[3,4-f][1,4]oxazepin-12-one]
[1]; Homo sapiens, MIA PaCa-2, 2 h
  IC50: 163 nM
[2]; [3]
  IC50: 143 nM

## C=CC(=O)N1CCN2C(=O)c3c(N4CCN(C)[C@H](C)C4)nc(-c4c(O)cccc4F)c(Cl)c3OC[C@H]2C1 [Z235, (6aR)-8-acryloyl-4-chloro-1-((R)-3,4-dimethylpiperazin-1-yl)-3-(2-fluoro-6-hydroxyphenyl)-6,6a,7,8,9,10-hexahydro-12H-pyrazino[2,1-c]pyrido[3,4-f][1,4]oxazepin-12-one]
[1]; Homo sapiens, MIA PaCa-2, 2 h
  IC50: 138 nM
[2]; [3]
  IC50: 22.8 nM

## C=CC(=O)N1CCN2C(=O)c3c(N4CC(N5CCOCC5)CC4(C)C)nc(-c4ccccc4F)c(Cl)c3OC[C@H]2C1 (single isomer, unassigned) [Z468-2]
[1]
  IC50: 61 nM
[2]
  IC50: 12 nM

## C=CC(=O)N1CCN2C(=O)c3c(N4CC(=O)N(C)CC4C)nc(-c4c(O)cccc4F)c(Cl)c3OC[C@H]2C1 (single isomer, unassigned) [Z221-1]
[1]
  IC50: 19 nM
[2]; [3]
  IC50: 8.8 nM

## C=CC(=O)N1CCN2C(=O)c3c(N4CCN(CCO)C[C@@H]4C)nc(-c4c(O)cccc4F)c(Cl)c3OC[C@H]2C1 [Z257, (6aR)-8-acryloyl-4-chloro-3-(2-fluoro-6-hydroxyphenyl)-1-((S)-4-(2-hydroxyethyl)-2-methylpiperazin-1-yl)-6,6a,7 ,8,9,10-hexahydro-12H-pyrazino[2,1-c]pyrido[3,4-f][1,4]oxazepin-12-one]
[1]; Homo sapiens, MIA PaCa-2, 2 h
  IC50: 104 nM
[2]; [3]
  IC50: 11.3 nM

## C=CC(=O)N1CCN2C(=O)c3c(N4CC(N(C)C5COC5)CC4(C)C)nc(-c4c(O)cccc4F)c(Cl)c3OC[C@H]2C1 (single isomer, unassigned) [Z331-2]
[1]
  IC50: 7 nM
[2]
  IC50: 1.3 nM

## C=CC(=O)N1CCN2C(=O)c3c(N4CCN(C)C[C@@H]4C)nc(-c4c(O)cccc4Cl)c(Cl)c3OC[C@H]2C1 (single isomer, unassigned) [Z455-1]
[1]
  IC50: 479 nM
[2]
  IC50: 86.9 nM

## C=CC(=O)N1CCN2C(=O)c3c(N4C[C@H](N(C)C)CC4(C)C)nc(-c4ccccc4)c(Cl)c3OC[C@H]2C1 (single isomer, unassigned) [Z655-2]
[1]
  IC50: 196 nM
[2]
  IC50: 50.9 nM

## C=CC(=O)N1CCN2C(=O)c3c(N4CCN(C)C(C)(C)C4)nc(-c4c(O)cccc4F)c(Cl)c3OC[C@H]2C1 [Z261, (6aR)-8-acryloyl-4-chloro-3-(2-fluoro-6-hydroxyphenyl)-1-(3,3,4-trimethylpiperazin-1-yl)-6,6a,7,8,9,10-hexahydro-12H-pyrazino[2,1-c]pyrido[3,4-f][1,4]oxazepin-12-one]
[1]; Homo sapiens, MIA PaCa-2, 2 h
  IC50: 59 nM
[2]; [3]
  IC50: 10.6 nM

## C=CC(=O)N1CCN2C(=O)c3c(N4CCN(C)C[C@@H]4C)nc(-c4c(O)cccc4Cl)c(Cl)c3OC[C@H]2C1 (single isomer, unassigned) [Z455-2]
[1]
  IC50: 33 nM
[2]
  IC50: 9.2 nM

## C=CC(=O)N1CCN2C(=O)c3c(N4C[C@H](N(C)CCF)CC4(C)C)nc(-c4ccccc4F)c(Cl)c3OC[C@H]2C1 (single isomer, unassigned) [Z660-2]
[1]
  IC50: 91 nM
[2]
  IC50: 47 nM

## C=CC(=O)N1CCN2C(=O)c3c(N4CCN(C)C(C)C4C)nc(-c4c(O)cccc4F)c(Cl)c3OC[C@H]2C1 (stereo partly drawn) [Z308a, (6aR)-8-acryloyl-4-chloro-3-(2-fluoro-6-hydroxyphenyl)-1-(2,3,4-trimethylpiperazin-1-yl)-6,6a,7,8,9,10-hexahydro-12H-pyrazino[2,1-c]pyrido[3,4-f][1,4]oxazepin-12-one]
[1]
  IC50: 21 nM
[2]
  IC50: 1.7 nM

## C=CC(=O)N1CCN2C(=O)c3c(N4CC(O)CC4(C)C)nc(-c4c(O)cccc4F)c(F)c3OC[C@H]2C1 (stereo partly drawn) [Z256, (6aR)-8-acryloyl-4-fluoro-3-(2-fluoro-6-hydroxyphenyl)-1-(4-hydroxy-2,2-dimethylpyrrolidin-1-yl)-6,6a,7,8,9,10-hexahydro-12H-pyrazino[2,1-c]pyrido[3,4-f][1,4]oxazepin-12-one]
[1]; Homo sapiens, MIA PaCa-2, 2 h
  IC50: 43 nM
[2]; [3]
  IC50: 10.8 nM

## C=CC(=O)N1CCN2C(=O)c3c(C4NCCN5C(=O)CCC45C)nc(-c4c(O)cccc4F)c(Cl)c3OC[C@H]2C1 (stereo partly drawn) [Z337, (6aR)-8-acryloyl-4-chloro-3-(2-fluoro-6-hydroxyphenyl)-1-(8a-methylhexahydropyrrolo[1,2-a]pyrazin-6 (2H)-one-1-yl)-6,6a,7,8,9,10-hexahydro-12H-pyrazino[2,1-c]pyrido[3,4-f][1,4]oxazepin-12-one]
[1]
  IC50: 154 nM
[2]
  IC50: 16 nM
